Assay results taken from paper PMC2906235 (The Journal of organic chemistry, 2010).
Where two headings read alike, the source gives them in different places.

Experiments:
[1] = system: Kasumi-1 acute myeloid leukemia cell line; assay: Kasumi-1 cell growth inhibition assay; format: cell-based; details: read-out: Kasumi-1 IC50
[2] = system: MOLM-13 acute myeloid leukemia cell line; assay: MOLM-13 cell growth inhibition assay; format: cell-based
[3] = molecular target: recombinant human Hsp90 (Hsp90α) (Homo sapiens, UniProt P07900); assay: Competitive binding to recombinant human Hsp90; details: relative to control 17-AAG
oncostatin M signaling = details: cited from earlier work
[4] = system: Hsp90 derived from MDA-MB-468 breast cancer cell lysate; assay: Competitive binding assay to Hsp90 from MDA-MB-468 breast cancer cell lysate
[5] = system: human histiocytic lymphoma U-937; details: U-937 cells; cited from earlier work
[6] = read-out: MOLM-13 IC50, cell growth inhibition, MOLM-13

| Fold higher Hsp90 affinity than 17-AAG [3] [fold] | Fold higher Hsp90 affinity than 17-AAG ([3]; listed as autolytimycin 2) | IC50 ([2]; read-out: MOLM-13 IC50, cell growth inhibition, MOLM-13, listed as autolytimcyin (2)) [µM] | Fold higher Hsp90 affinity than 17-AAG ([3]; listed as reblastatin 1) | IC50 ([2]; Homo sapiens, MOLM-13, read-out: MOLM-13 IC50, cell growth inhibition, MOLM-13) [µM] | SMILES | IC50 [1] [µM] | IC50 [2, 6] [µM] | IC50 ([2]; read-out: MOLM-13 IC50, cell growth inhibition, MOLM-13, listed as 17-AAG 4) [µM] | Activity in cell based oncostatin M signaling assay (oncostatin M signaling) | Competitive binding (nanomolar activity) to Hsp90 ([4]; Hsp90 from MDA-MB-468 breast cancer cell lysate) [nM] | Fold enhanced activity over geldanamycin ([4]; MDA-MB-468 lysate competitive binding) [fold] | Fold less active than 17-AAG ([2]; MOLM-13 cell line) [fold] | IC50, inhibition of proliferation [5] [µg/mL] | IC50 (oncostatin M signaling; read-out: IC50, oncostatin M signaling assay, cell-based) [µM] |
| --- | --- | --- | --- | --- | --- | --- | --- | --- | --- | --- | --- | --- | --- | --- |
| – | – | – | – | – | C=CCNC1=C2C[C@@H](C)C[C@H](OC)[C@H](O)[C@@H](C)/C=C(\C)[C@H](OC(N)=O)[C@@H](OC)/C=C\C=C(/C)C(=O)NC(=CC1=O)C2=O [17-AAG (4), 17-allylamino-17-demethoxygeldanamycin, reference compound] | 0.48 | 0.09 | ~0.09 | – | – | – | – | – | – |
| 4 | about 4 fold | 0.51 | – | – | CO[C@H]1C[C@H](C)Cc2cc(O)cc(c2)NC(=O)/C(C)=C/CC[C@H](OC)[C@@H](OC(N)=O)/C(C)=C/[C@H](C)[C@H]1O [autolytimycin (2), Autolytimycin] | 0.28 | ~0.51 | – | exhibit activity | – | – | – | – | – |
| 4 | – | – | about 4 fold | ~0.27 | COc1c(O)cc2cc1C[C@@H](C)C[C@H](OC)[C@H](O)[C@@H](C)/C=C(\C)[C@H](OC(N)=O)[C@@H](OC)CC/C=C(\C)C(=O)N2 [reblastatin (1), reblastatin] | – | – | – | – | 7.34 | 4 | 3 | 0.43 | 0.16 |
